# Results reported in PubChem BioAssay AID2740 (NMMLSC, 2010).
# Values joined by “and” are separate entries in the source; they are usually repeats but may differ in a detail not shown here. Equal values may be shown once. Active and inactive are the calls of the source.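 Rule for the calls: active = compounds whose fitted half-maximal concentration for changing the GFP signal is at or below a set limit; inactive = the rest.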
# Test: TOR pathway RPL19A-GFP modulators, concentration series – cell-based, S. cerevisiae, flow cytometry, MLPCN hits, dose response (AID 2740);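 note: background is signal of the same compound in parental non-GFP s288c yeast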
# Settings: S. cerevisiae RPL19A-GFP strain, flow cytometry fluorescence, 3 h; at 33 µM (top of the series)
row,Compound,"GFP fluorescence, lower = active (kMESF (background-subtracted))"
1,COc1ccc(OCC(=O)NNC(=S)NC(=O)C2CCCCC2)cc1,38 (inactive)
2,CCOC(=O)CSC1=NC(=O)/C(=C\c2ccc(Cl)cc2)S1,31.9 (inactive)
3,CC(C)Cn1c(=O)c(C(=O)Nc2ccncc2)c(O)c2ccccc21,5.71 (inactive)
4,COc1ccccc1C(=O)NNC(=S)NC(=O)c1cccs1,43.5 (inactive)
5,O=C(O)c1cc[c]([Hg][Cl])cc1,15.7 (inactive)
6,O=c1c(-c2ccc(Cl)cc2)[n+]([O-])c2ccccc2n1O,30.9 (inactive)
7,CCCCc1ccc(NC(=O)CC(C)=O)cc1,47.2 (inactive)
8,O=C1C(Cl)=C(Nc2ccccc2O)C(=O)N1c1ccccc1,43.6 (inactive)
9,Cc1cccc(N=Nc2ccc(O)c3ncccc23)c1,33.3 (inactive)
10,CC(Oc1cccc(Cl)c1)C(=O)Nc1nc(-c2ccccn2)cs1 (configuration not stated),30 (inactive)
11,N/C(=N\OC(=O)c1cc(Br)ccc1Cl)c1ccccn1,39.8 (inactive)
12,O=[N+]([O-])c1ccc(O)c2ncccc12,25.5 (inactive) and 19.3 (inactive)
13,Cc1cccc(N2C(=O)C(Cl)=C(Nc3c(C)n(C)n(-c4ccccc4)c3=O)C2=O)c1C,41.7 (inactive)
14,Cc1cc(NC(=O)c2cccnc2Cl)ccc1NC(=O)c1cc2ccccc2o1,39.6 (inactive)
15,O=C(/C=C/c1ccccc1)NC(=S)NNC(=O)Cc1cccs1,45.5 (inactive)
16,CCOC(=O)CCS(=O)(=O)c1nc(-c2ccccc2)cc(C(F)(F)F)n1,33.2 (inactive)
17,N=C1/C(=C\c2coc3ccccc3c2=O)C(=O)N=C2SC(c3ccncc3)=NN12,25.5 (inactive)
18,N#Cc1ccc(N=c2ssnc2Cl)cc1,42 (inactive)
19,Cc1c(Cc2ccccc2)c(NCCN(C)C)n2c(nc3ccccc32)c1C#N,46.6 (inactive)
20,O=c1/c(=C/c2cccc3ccccc23)sc2ncnn12,50.3 (inactive)
21,N#C/C(=C\c1cc(Br)ccc1F)C(=O)NC1CC1,24.2 (inactive)

row,Compound,"GFP fluorescence, lower = active (kMESF (background-subtracted))"
1,N#Cc1cc([N+](=O)[O-])c(-n2nnc3ccccc32)c([N+](=O)[O-])c1,43.3 (inactive)
2,Cc1ccccc1C(=O)NNC(=S)NC(=O)c1ccc(Cl)cc1Cl,45.9 (inactive)
3,O=S(=O)(/N=C(\Sc1ccc(Cl)cc1)c1ccccc1)c1ccccc1,33.6 (inactive)
4,Cc1cc(=O)n2c3c(sc2n1)C(=O)N(Cc1ccccc1)C3=O,42.5 (inactive)
5,Cc1ccc(/C=C2\SC(=S)N(CC3CCCO3)C2=O)o1 (configuration not stated),42.5 (inactive)
6,COc1ccc(C(=O)NNC(=S)NC(=O)/C=C/c2cccs2)cc1,47.4 (inactive)
7,COc1cc(N=c2ssnc2Cl)cc(OC)c1,31.6 (inactive)
8,COc1cc(N2C(=O)C=CC2=O)c(OC)cc1Cl,18.8 (inactive)
9,COC(=O)c1cc(N2C(=O)C3C(C2=O)C2(C)C=CC3(C)O2)ccc1Cl (configuration not stated),28.8 (inactive)
10,O=C(/C=C/c1ccccc1[N+](=O)[O-])c1ccccc1Br,44.1 (inactive)
11,c1ccc(-c2cccc(-c3ccccn3)n2)nc1,36.2 (inactive)
12,COc1ccc(C=C2C(=O)c3ccccc3C2=O)cc1O,38.1 (inactive)
13,CCCc1cc(N2CCN(c3ccccn3)CC2)n2nc(C)c(-c3ccccc3)c2n1,38.1 (inactive)
14,COc1cc(N=c2ssnc2Cl)c(OC)cc1Cl,22.5 (inactive) and 23.2 (inactive)
15,O=C(Nc1nnc(-c2ccc(Cl)cc2)o1)c1ccccc1Br,37 (inactive)
16,COc1cc(/C=C2\C(=O)ON=C2c2ccccc2)cc(Br)c1O,37.3 (inactive)
17,Cc1cc(C(=O)Nc2nc(-c3ccccn3)cs2)ccc1[N+](=O)[O-],48.9 (inactive)
18,O=C(c1ccccn1)c1conc1C(=O)c1ccc(Br)cc1,38.5 (inactive)
19,CC(C)(C)C1C/C(=C/c2ccccn2)C(=O)/C(=C/c2ccccn2)C1 (configuration not stated),41.4 (inactive)
20,COc1ccccc1N=Cc1nc(-c2ccccc2)oc1OC(C)=O,46.8 (inactive)
21,CC(=O)Oc1ccc(N2C(=O)C3C4C=CC(O4)C3C2=O)cc1 (configuration not stated),48.8 (inactive)
